Laboratory results as given in patent publication US9205139B2, “Immunomodulatory methods and systems for treatment and/or prevention of aneurysms” (priority 2010, dated 2015).
Peptide text beside a SMILES is read from it.

Key:
[1] = Circulating cholesterol and body weight of immunized mice; type: in vivo; details: n = 10; mean±Std
Excerpt: Immunization protocols Male apoE (−/−) mice (Jackson Laboratories) were housed in an animal facility accredited by the American Association of Accreditation of Laboratory Animal Care and kept on a 12-hour day/night cycle with unrestricted access to water and food. The Institutional Animal Care and Use Committee of Cedars-Sinai Medical Center approved the experimental protocols. […] Mice, maintained on normal chow diet, received subcutaneous primary immunization in the dorsal area between scapulas at 6-7 weeks of age, followed by a booster at 9 and 12 weeks of age. One week after last booster, diet was switched to high cholesterol chow (TD 88137, Harlan-Teklad) and continued until euthanasia at the age of 25 weeks. Separate groups of mice receiving PBS or cBSA/alum at the same immunization time-points served as control. Some mice were sacrificed at 8 or 13 weeks of age to assess immune response against p210.
The vaccine preparation consisted of the p210 peptide (Euro-Diagnostica AB, Sweden) conjugated to cationic bovine serum albumin (cBSA) as carrier using a method described previously^3;4. Alum was used as adjuvant and mixed with peptide/cBSA conjugated with 1:1 ratio in volume. Peptide conjugation was performed on the day of immunization and freshly mixed with alum just prior to each immunization. […]

atherosclerosis = details: WO 02/080954, Table B; cited from earlier work

Row | Compound | Body weight [1] | percentage reduction of atherosclerosis (atherosclerosis)
1 | CC(C)C[C@H](NC(=O)[C@H](CC(=O)O)NC(=O)[C@H](Cc1ccccc1)NC(=O)[C@H](CO)NC(=O)[C@H](CCC(N)=O)NC(=O)[C@H](CCCCN)NC(=O)[C@@H](NC(=O)[C@@H](NC(=O)[C@@H](N)CCCCN)[C@@H](C)O)[C@@H](C)O)C(=O)N[C@@H](CO)C(=O)N[C@H](C(=O)N[C@@H](CCCCN)C(=O)N[C@@H](C)C(=O)N[C@@H](CCC(N)=O)C(=O)N[C@@H](Cc1ccc(O)cc1)C(=O)N[C@@H](CCCCN)C(=O)N[C@@H](CCCCN)C(=O)N[C@@H](CC(N)=O)C(=O)N[C@@H](CCCCN)C(=O)N[C@@H](Cc1c[nH]cn1)C(=O)O)C(C)C [p210, KTTKQ SFDLS VKAQY KKNKH] (H-KTTKQSFDLSVKAQYKKNKH-OH) | without affecting | 
2 | EEEML ENVSL VCPKD ATRFK [p1] |  | 31%
3 | HTFLI YITEL LKKLQ STTVM (HTFLIYITELLKKLQSTTVM) [p301] |  | 55.2%
4 | IEIGL EGKGF EPTLE ALFGK (IEIGLEGKGFEPTLEALFGK) [p45] |  | 47.4%
